# Test results: patent publication US20230301933A1 (priority 2020, published 2023)
# Where two headings read alike, the source gives them in different places.
# How the values were obtained:
# Virus Induced Pneumonia = test system: Virus Induced Pneumonia
# From the text: Subject 1 was a person, weight 85 kg, pre-condition asthma. […] Pre-treatment history:
# Self-treatment with Ventolin and paracetamol. […] Sixth day. […] Patient thinks that the problem is serious, and contacts GP.
# Treatment started for 9 consecutive days by four subcutaneous injections of a 0.06 w/w % phenol in physiological saline daily administered in: 1 and 2) the posterior margin of the sternocleidomastoid muscle on the level of the larynx knot at both left and right side of the body, each about 1 cm deep; 3) the middle of the upper socket of the sternum about 0.5 cm deep, and 4) the depression below the spinous process of the 7th cervical vertebra, about 0.5 cm deep. First day of treatment is set as ‘Day 1’
# MRSA Lung Infection = test system: MRSA Lung Infection
# Procedure: Person, 88 kg, dyspnoea, cough, chest pain and fever, under urine catheter. Has used different antibiotic before and after operation prostate cancer and by lung infection.
# Phenol reduce to 0.02% 15 ml. duration 10 minutes for 5 more days.
# Critical Stage Covid-19 = test system: Critical Stage Covid-19
# Procedure: Treated with concentration phenol 0.01% in 60 ml, drip infusion 20 minutes, once daily.
# Day 6 lowered dose to 0.01% concentration in 30 ml. Stopped treatment after treatment day 9.
# Early Stage CoViD-19 = test system: Early Stage CoViD-19
# From the text: Subject 2, suffering early stage CoViD-19. Former professional sportsman (soccer), doesn't smoke, no alcohol, weight 75 kg. Pre-treatment history. […] Came to GP for treatment.
# Treatment for four consecutive days of four subcutaneous injections as described for patient 1. First day of treatment is set as ‘Day 1’.
# [1] = Procedure: In an particularly attractive embodiment, the phenol is injected subcutaneously, i.e. in the soft tissue below the skin with a depth of up to 0.5-2.0 cm.
# In another attractive embodiment, the phenol is administered intravenously.
# [2] = insulin comprising 0.2 to 1.0 mg per dose phenol as preservative; cited from earlier work
# Flu Pneumonia = settings: human, in vivo
# [3] = Day 1 (first day of treatment), four s.c. injections 0.06 w/w % phenol daily
# [4] = at end of treatment (3 days normal body temperature), phenol 0.01% drip infusion once daily
# [5] = day1, phenol 0.02% (in 30 ml), drip 15 minutes
# [6] = day2, phenol 0.02% (in 30 ml), drip 15 minutes
# [7] = day3, phenol 0.02% (in 30 ml), drip 15 minutes
# [8] = day4, phenol 0.02% (in 30 ml), drip 15 minutes
# [9] = day5, phenol 0.02% (in 30 ml), drip 15 minutes
# [10] = day6, phenol 0.02% (in 15 ml), drip 10 minutes
# [11] = day7, phenol 0.02% (in 15 ml), drip 10 minutes
# [12] = day8, phenol 0.02% (in 15 ml), drip 10 minutes
# [13] = day9, phenol 0.02% (in 15 ml), drip 10 minutes
structure (smiles),measurement,setting,value
Oc1ccccc1 [phenol],Side effects after injection,Virus Induced Pneumonia; 9 consecutive days of s.c. injections,"slight headache, no other side effect after injection"
same,Temperature,Virus Induced Pneumonia; [3],38.1 °C
same,Short breath,Virus Induced Pneumonia; Day 2,Limited feeling of short breath and asthma
same,Temperature,"Virus Induced Pneumonia; Day 2, four s.c. injections 0.06 w/w % phenol daily",37.6 °C
same,Short breath,Virus Induced Pneumonia; Day 3,Less short breath
same,Temperature,Virus Induced Pneumonia; Day 3,37.4 °C
same,Short breath,Virus Induced Pneumonia; Day 4,Short breath much better
same,Temperature,Virus Induced Pneumonia; Day 4,37.4 °C
same,Short breath,Virus Induced Pneumonia; Day 5,Short breath slightly better
same,Temperature,Virus Induced Pneumonia; Day 5,37.4 °C
same,Short breath,Virus Induced Pneumonia; Day 6,No more short breath
same,Temperature,Virus Induced Pneumonia; Day 6,37.0 °C
same,Breathing,Virus Induced Pneumonia; Day 7,Breathing normal
same,Fever,Virus Induced Pneumonia; Day 7,No fever
same,Fever,Virus Induced Pneumonia; Day 8,No fever
same,X-lung: pneumonia,MRSA Lung Infection; Day 18th,almost recovered
same,"Fever (temperature), reduced from 38.0",MRSA Lung Infection; after 0.02% phenol 30 ml infusion once per day for 3 days,37.4 °C
same,Temperature,"MRSA Lung Infection; during 0.02% phenol 15 ml, 10 minutes, for 5 more days",under 37 °C
same,R/R,Critical Stage Covid-19; [4],20
same,SPO2,Critical Stage Covid-19; [4],97%
same,R/R,Critical Stage Covid-19; [5],41
same,SpO2,Critical Stage Covid-19; [5],91%
same,body temperature,Critical Stage Covid-19; [5],37.6 °C
same,R/R,Critical Stage Covid-19; [6],32
same,SpO2,Critical Stage Covid-19; [6],93%
same,body temperature,Critical Stage Covid-19; [6],38.6 °C
same,R/R,Critical Stage Covid-19; [7],27
same,SpO2,Critical Stage Covid-19; [7],94%
same,body temperature,Critical Stage Covid-19; [7],38.5 °C
same,R/R,Critical Stage Covid-19; [8],23
same,SpO2,Critical Stage Covid-19; [8],96%
same,body temperature,Critical Stage Covid-19; [8],38.0 °C
same,R/R,Critical Stage Covid-19; [9],22
same,SpO2,Critical Stage Covid-19; [9],96%
same,body temperature,Critical Stage Covid-19; [9],37.4 °C
same,day 6 evaluation: breathing,Critical Stage Covid-19; day 6,"day 6 evaluation patient breaths normally, still stress, coughing, feels good, day 6 started walking (with infusion)"
same,"temperature, R/R, SpO2",Critical Stage Covid-19; day 6,normal
same,R/R,Critical Stage Covid-19; [10],20
same,SpO2,Critical Stage Covid-19; [10],97%
same,body temperature,Critical Stage Covid-19; [10],37.0 °C
same,R/R,Critical Stage Covid-19; [11],20
same,SpO2,Critical Stage Covid-19; [11],97%
same,body temperature,Critical Stage Covid-19; [11],36.8 °C
same,R/R,Critical Stage Covid-19; [12],20
same,SpO2,Critical Stage Covid-19; [12],97%
same,body temperature,Critical Stage Covid-19; [12],36.9 °C
same,day 9 evaluation: body temperature,Critical Stage Covid-19; day 9,day 9 evaluation patients three days normal body temperature.
same,R/R,Critical Stage Covid-19; [13],18
same,SpO2,Critical Stage Covid-19; [13],97%
same,body temperature,Critical Stage Covid-19; [13],36.8 °C
same,Time after start of treatment at which improvement of R/R and SpO2 was measured,Critical Stage Covid-19; drip infusion once daily,6 h
same,Temperature,Early Stage CoViD-19; [3],38.4 °C
same,Temperature,Early Stage CoViD-19; Day 2,37.2 °C
same,Temperature,Early Stage CoViD-19; Day 3,36.8 °C
same,Temperature,Early Stage CoViD-19; Day 4,normal
same,Temperature,Early Stage CoViD-19; Day 5,normal
same,Duration of slight headache after treatment,Early Stage CoViD-19; after first treatment,about four
same,Time the slight cough remained,"Early Stage CoViD-19; counted from Day 5, then fully gone",5 days
same,Side effects,Early Stage CoViD-19; four consecutive days of s.c. injections,No other side effects noted
same,Injection location reaction,Early Stage CoViD-19; s.c. injection,slight pain at injection
same,Duration of immediate effect,[1]; intravenous administration,7 to 14 days
same,Time phenol may remain in the body,[1]; intravenous administration,about 24 hours
same,Duration of immediate effect,[1]; subcutaneous injection,about 7 days
same,Time phenol may remain in the body,[1]; subcutaneous injection,about 24 hours
same,Accumulation of phenol in the body by daily use,[2],no significant accumulation
same,Breathing,Flu Pneumonia,breaths quietly
same,Patient outcome,Flu Pneumonia,physical recovered with some cough
same,X-lung infiltrate,Flu Pneumonia,much improved
same,Fever (temperature),Flu Pneumonia; iv,36.8-37.5 °C
same,Heartbeat,Flu Pneumonia; iv,about 90 per minute
